# Source: patent US9150608B2, “Neuro-protective compounds and their use” (Biotechnology Research Corp. Ltd., priority 2010, dated 2015)
# Key:
# [1] = system: rat cortical neurons cultured in the absence of B27; assay: Cortical neuron survival assay with B27 withdrawal (MTT); type: cell-based; settings: for cell survival of cortical neurons in the absence of B27 (MTT): 30 μM, pre-treated 24 hours (FIG. 15); for concentration showing neuroprotective effect in the absence of B27 (MTT): primary cortical neurons 7DIV, dose-dependent study 1-30 μM
# Method: FIG. 2. Adelostemma gracillimum refined fraction promotes rat cortical neuron survival against B27 withdrawal. Cortical neurons isolated from embryonic day 18 rats were cultured in Neurobasal medium supplemented with 2 % B27. […] A MTT assay was performed 24 hours later. Cell survival is presented as a percentage compared to a DMSO control in the presence of B27 (“CTL with B27”). Assays were conducted in triplicate and repeated at least twice. *=P<0.05.
# Primary cortical neurons were cultured in Neurobasal medium and supplemented with B27, a proprietary formula of Life Technologies. The combination of Neurobasal medium and B27 provides a stable growth environment for primary neurons to maturity in vitro. Neurons undergo apoptosis or cell death in the absence of B27. To study the neuroprotective effect of Adelostemma gracillimum refined fraction, neurons of 7DIV were treated with AG-0 and cell survival was measured as mitochondrial activity by the MTT assay.
# The cells were then washed with Hanks' solution twice and replaced with test samples that were serial diluted in Neurobasal medium. A tetrazole, 3-(4,5-Dimethylthiazol-2-yl)-2,5-diphenyltetrazolium bromide (MTT, 5 mg/ml) was added to the medium at a ratio of 1:10 after a 2-day incubation. MTT is reduced by living cells into purple formazan and further solubilized in 20% SDS solution; therefore, the colored solution was measured by spectrophotometer and cell viability was quantified.
# [2] = system: phosphorylated ERK, CREB, Akt, P38, MEK in cortical neurons; assay: Western blot detection of signaling proteins in cortical neurons; type: cell-based, rat; settings: cortical neurons 7DIV
# [3] = system: cortical neurons in the absence of B27; assay: Immunocytochemical analysis of neurons after B27 withdrawal; type: cell-based, rat; settings: 30 μM, pre-treated 24 hours
# Method: FIG. 10. Immunofluorescence staining of cortical neurons pretreated with Adelostemma gracillimum refined fraction or fraction AG-3 in the absence of B27. […] Cortical neuronal cultures of 7DIV were pre-treated with AG-0 (30 μg/mL), AG-3 (30 μg/mL), or BDNF (50 ng/mL) for 24 hours, then the medium was changed to one lacking B27. Cultures were fixed with 4% paraformaldehyde, immunostained with beta-tubulin type III antibody, and visualized with FITC-conjugated anti-mouse antibody. Cell bodies were highlighted by DAPI staining. DMSO was used as a solvent control. Images are shown at 40× magnification.
# FIG. 21. Immunofluorescence staining of GAG-C27-treated cortical neurons in the absence of B27. Cortical neuronal cultures of 7DIV were pre-treated with AG-0 (30 μg/mL), GAG-C27 (30 μM), or BDNF (50 ng/mL) for 24 hours, after which the medium was changed to one lacking B27. Cultures were fixed with 4% paraformaldehyde, immunostained with beta-tubulin type III antibody, and visualized with FITC-conjugated anti-mouse antibody. Cell bodies were highlighted by DAPI staining. DMSO was used as a solvent control. […]
# Cortical neurons were plated on 35-mm dishes (NUNC) at a density of 1×10^6 cells per plate using Neurobasal medium (Invitrogen) supplemented with 2% B27 (Invitrogen). […] Cell morphology was then analyzed using a fluorescence microscope with a 40× objective (DMRA; Leica). […]
# [4] = system: hippocampal neurons; assay: Quantification of spine (dendritic spine morphology); type: cell-based, rat; settings: hippocampal neurons 14DIV, 10 μM, 24 hr, vs DMSO
# Method: FIG. 38. GAG-C14 modulates spine morphogenesis. Hippocampal neurons were transfected with enhanced green fluorescent protein (EGFP) construct at 7DIV by calcium phosphate precipitation. The GFP-expressing neurons at 14DIV were then treated with 10 μM GAG-C14 or DMSO vehicle control for 24 hr. The dendritic spine morphology of hippocampal neurons was examined by confocal microscopy.
# Cultured hippocampal neurons were seeded on 18 mm coverslips coated with poly-D-lysine in 12-well-plates (Falcon). The neurons were then grown in Neurobasal medium (Invitrogen) supplemented with 2% B27 (Invitrogen) and 0.5 mM glutamine. To visualize the morphology of dendritic spines, the neurons were transfected with GFP DNA construct between 7-9 DIV by using calcium phosphate precipitation. To examine the development of dendritic spines, the neurons were treated with the test compound on 14 DIV. The neurons were then fixed with 4% paraformaldehyde and morphology was examined using confocal microscopy. To quantify spine density in cultured hippocampal neurons, a stack of images (z step, 0.5 μm) was collected using a 60× objective. Images were merged and analyzed using MetaMorph software (Universal Imaging Corp). Dendritic spines, defined as protrusions at least 0.5 μm from the dendritic surface, were scored and expressed as per μm length of dendrite. Three dendrites from each neuron was randomly selected and quantified in a double-blinded manner. For each experimental condition, twenty to thirty neurons were analyzed from 3 independent experiments. Data was presented as mean±SEM.
# [5] = system: cyclic AMP response (CRE) element; assay: CRE-dependent transcription assay (luciferase); type: cell-based, rat; settings: hippocampal neurons 12DIV, 50 μM, 6 hours
# Method: FIG. 41. GAG compounds enhance CRE-dependent transcription activity. GAG-C14 (a), GAG-C53 (b), GAG-C63 (c), GAG-C69 (d), GAG-C84 (e), GAG-C111 (f), GAG-C122 (g), GAG-C123 (h), and GAG-C129 (i) induce CRE-dependent transcriptional activity in cultured hippocampal neurons. On the day of cell seeding, hippocampal neurons were transfected with a firefly luciferase reporter plasmid containing cyclic AMP response (CRE)-element. The cells at 12 DIV were then treated with 50 μM of AG compounds for 6 hours. Data are mean±SEM (n=3-4), *=P<0.05, **=P<0.01, and ***=P<0.005 versus vehicle-treated cells (0 μM), student's t test.
# Cultured hippocampal neurons were transfected with a firefly luciferase reporter plasmid containing a cyclic AMP response (CRE) element. At 12DIV, the cells were treated with 50 μM of compound for 6 hours, then CRE-dependent transcription activity was assayed by measuring luciferase levels.
# Freshly isolated embryonic cortical neurons were transfected with a luciferase reporter gene (Cre-Luc) linked to CREB activation following the ACM lipofectamine method using Lipofectamine 2000, a cationic liposome based reagent (Invitrogen). […] Transfection was performed using 1 μL Lipofectamine 2000 and 0.4 μg DNA per well. Neurons were then treated with test samples for time periods of 6 hours. After treatment, the cells were washed with ice-cold DPBS and 100 μL of 1× luciferase lysis buffer (Promega) was added. The plates were placed in −20° C. to freeze the cells, after which they were thawed to facilitate lysis. The lysates were transferred onto white bottom plates and assayed for renilla luciferase using the luciferase assay kit (Promega). Increased CREB activation in the neurons leads to an enhanced luciferase production and this was quantified using a Promega GloMax™ 96 microplate luminometer. […] BDNF and rolipram were used as positive controls.
# [6] = system: CREB promoter; assay: CREB promoter assay (luciferase) in cortical neurons; type: cell-based, rat; settings: cortical neurons 7DIV, 6 hours incubation
# Method: FIG. 26. GAG-C77 increases CREB-promoter activity in primary cortical neurons. Primary cortical neuronal cultures (7DIV) transfected with a luciferase-CREB promoter construct were treated with GAG-C69 or GAG-C77 (concentration depicted in [μM]). Cell lysates were collected after 6 hours incubation and luciferase activity was measured. BDNF [ng/mL] and rolipram [μM] were used as positive controls. Assays were conducted in triplicate. *=P<0.05; **=P<0.005.
# Freshly isolated embryonic cortical neurons were transfected with a luciferase reporter gene (Cre-Luc) linked to CREB activation following the ACM lipofectamine method using Lipofectamine 2000, a cationic liposome based reagent (Invitrogen). […] Transfection was performed using 1 μL Lipofectamine 2000 and 0.4 μg DNA per well. Neurons were then treated with test samples for time periods of 6 hours. After treatment, the cells were washed with ice-cold DPBS and 100 μL of 1× luciferase lysis buffer (Promega) was added. The plates were placed in −20° C. to freeze the cells, after which they were thawed to facilitate lysis. The lysates were transferred onto white bottom plates and assayed for renilla luciferase using the luciferase assay kit (Promega). Increased CREB activation in the neurons leads to an enhanced luciferase production and this was quantified using a Promega GloMax™ 96 microplate luminometer. […]
CRE-dependent transcription activity (luciferase) [5],luciferase activity driven by the CREB promoter [6],Molecule,cell survival of cortical neurons in the absence of B27 (MTT) [1],concentration showing neuroprotective effect in the absence of B27 (MTT) [1],AKT protein phosphorylation ([2]; 10 μM),ERK phosphorylation time course ([2]; 10 μM),"phosphorylated P38 ([2]; 10 μM, after 30 min of incubation)",protection from cell death after B27 withdrawal (immunofluorescence staining) [3],frequency / percentage of filopodia [4],percentage of large spines (head>1 μm) [4],spine density [4],ERK phosphorylation time course ([2]; 30 μM),"CREB phosphorylation ([2]; 30 μM, 15 min of incubation)"
,,"3-O-β-D-Cymaropyranose-(1→4)-β-D-Digitoxopyranose-12-cis-cinnamyl-20-acetyl-8,14-seco-sacrostin [GAG-C27]",promoted cell survival,30 µM,no effect,"induced ERK phosphorylation in cortical neurons after 15 min, which was sustained for 60 min",reduction,protected cortical neurons from cell death,,,,,
enhances CRE-dependent transcription,,"CCCCCCCCCCCCCCCC(=O)OCC(O)CO (centres unmarked) [GAG-C14, 2,3-dihydroxypropyl palmitate]",,,no observable effect,induced ERK phosphorylation in cortical neurons after 15 min and the effect remained for 90 min,,,reduction in the frequency of filopodia,significantly increased,increase in spine density,,
,significantly induce luciferase activity,"COc1cc(C2Oc3c(OC)cc(C=O)cc3C2C)ccc1O (centres unmarked) [GAG-C77, 4-hydroxyl-3,3′-dimethyoxyl-4″,7-epoxy-8,5′-oxyneoligna-7′-al]",promoted cell survival,10 to 30 µM,,,,,,,,significantly induced ERK phosphorylation in cortical neurons from 15 min and persistently to 180 min,induced CREB phosphorylation
